Measurements as given in patent US10907191B2, “Method for measuring activity of oxidoreductase” (NATIONAL AGRICULTURE AND FOOD RESEARCH ORGANIZATION, priority 2016, dated 2021).

Biological target: T1, HAO derived from Nitrosomonas europaea (Nitrosomonas europaea, UniProt Q50925)
T1 construct: HAO was purified from ammonia oxidizing bacteria, and stored in a solution state or after drying; made in house; host or cells: Nitrosomonas europaea cells (native enzyme, not recombinant), purified by column chromatography
Experiment: Determination of 50% inhibitory concentration against HAO by HAO fluorescence measurement (resazurin method)
Format: biochemical
Conditions: n=4, nonlinear fitting
Description: The HAO fluorescence activity measurement was carried out to the compound library for screening by the resazurin method, and the inhibitory effect of these compounds was verified. The 40 kinds of compounds were dissolved in DMSO for molecular biology (available from Wako Pure Chemical Industries, Ltd.) or ultrapure water at a concentration of 100 mM, and further 2-fold dilution series was prepared with 16 series (100 mM, 50 mM, 25 mM, 12.5 mM, 6.25 mM, 3.13 mM, 1.56 mM, 0.78 mM, 0.39 mM, 0.19 mM, 97 μM, 48.8 μM, 24.4 μM, 12.2 μM, 6.1 μM and 3.1 μM) (final concentration becomes 1/200 concentration thereof). […] The plate was inserted into a fluorescence plate reader attached with a reagent injector (infinite M1000 PRO, manufactured by Tecan Co.), and 25 μL of 4 mM hydroxylamine stock solution for 4-fold dilution was added per well, so that an amount of the hydroxylamine to that of the resazurin was made 10-fold amount (molar ratio) in the reaction system. After 2 hours of incubation, fluorescence measurement (excitation wavelength 562 nm: wavelength width 20 nm, measurement wavelength 592 nm: wavelength width 20 nm) was carried out. Candidate compound A was selected as a inhibitor which decreased the fluorescence intensity to 10% or less compared with without-inhibitor condition. […]

T1 sequence (Q50925 25-570): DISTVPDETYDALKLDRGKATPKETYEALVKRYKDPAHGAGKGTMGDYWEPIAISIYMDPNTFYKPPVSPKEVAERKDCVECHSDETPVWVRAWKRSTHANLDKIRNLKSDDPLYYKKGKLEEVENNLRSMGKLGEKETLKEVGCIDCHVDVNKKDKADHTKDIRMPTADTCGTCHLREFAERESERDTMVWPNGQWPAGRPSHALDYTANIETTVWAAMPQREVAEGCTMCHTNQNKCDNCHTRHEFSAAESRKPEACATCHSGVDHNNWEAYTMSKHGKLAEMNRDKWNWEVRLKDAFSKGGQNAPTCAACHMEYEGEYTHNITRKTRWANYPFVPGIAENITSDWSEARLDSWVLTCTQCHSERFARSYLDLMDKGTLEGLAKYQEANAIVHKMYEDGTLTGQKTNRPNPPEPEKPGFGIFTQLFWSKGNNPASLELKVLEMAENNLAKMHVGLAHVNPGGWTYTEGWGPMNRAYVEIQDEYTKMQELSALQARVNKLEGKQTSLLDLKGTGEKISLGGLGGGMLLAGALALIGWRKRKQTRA

NNc1ccccc1 [phenylhydrazine]
IC50: 276 nM
